The values below come from patent US7667052B2 (Eisai R&D Management Co., Ltd., priority 2003, dated 2010).

In this assay the test system is transcription from VEGF promoter. The assay is described as follows: VEGF transcription-suppressing activity, VEGF-PLAP reporter in U251/1-8 cell. The class given is cell-based. To be noted: Homo sapiens, U-251; U251/1-8 cell, PLAP activity, low oxygen 18 hours; read-out: IC50 values of VEGF transcription-suppressing activity (range given). From the text:
In order to prepare reporter system reflecting transcription from VEGF promoter, VEGF promoter sequence was cloned, and inserted in secretory alkali phosphatase (PLAP) vector to construct reporter vector.
In order to obtain the promoter region of human VEGF, VEGF genome was cloned from phage library. PCR primers having the sequences described in Sequence Numbers 1 and 2 were designed based on VEGF cDNA (GenBank accession number: X62568) and a fragment having about 340 bp was obtained by carrying out PCR. Human genome phage library (Human genomic library, Clontech Co.) was screened using this as a probe to obtain pUC18-VEGFA containing about 5.4 kb of VEGF 5′ flanking region. The pUC18-VEGFA was cleaved by KpnI/NheI, VEGF promoter region of about 2.3 kb obtained was inserted in the multi cloning site KpnI/NheI of secretory alkali phosphatase (PLAP) vector (Goto et al, Mol. Pharmacol., 49, 860-873, 1996), and thus, VEGF-PLAP vector was constructed.
The above-mentioned VEGF-PLAP vector was introduced in the U251 cell cultured in the DULBECCO-modified eagle medium (DMEM; manufactured by SIGMA Co., Ltd.) containing 10% fetal calf serum, and cultured in the presence of 1 mg/ml G418 (Merck Co.) to establish G418 resistant stable clone (U251/1-8 cell).
It was confirmed that U251/1-8 cell secreted PLAP under low oxygen (2% O2 incubator) in the same manner as in the report (Cell. Mol. Biol. Res. 40, 35-39, 1994) and was a reporter system reflecting the transcription from VEGF promoter. The screening of the compound suppressing VEGF production which was induced by low oxygen stimulation was carried out below using the clone.
In order to remove the influence of alkaline phosphates in serum, U251/1-8 cell was rinsed twice with the adequate amount of PBS (Phosphate buffered saline), diluted in the DMEM medium containing 10% of serum in which alkaline phosphates was inactivated by the treatment of 60° C. for 20 min., and dispensed in 96-well plates by 4×10^4 cells/180 μl.
After culturing at 37° C. overnight in a CO2 incubator (5% CO2), 20 μL of the above-mentioned incubation solution containing the test compound diluted with 3-fold succession was added, and then they were incubated in a low oxygen ([…]) incubator for 18 hours. With respect to the PLAP activity in the culture supernatants, 10 μl of the supernatants was added to 50 μl of 0.28 M Na2CO3—NaHCO3 buffer solution (pH 10.0, 8.0 mM MgSO4), and finally 50 μl of alkaline phosphatase substrate (LUMISTEIN, Genomescience Co.) was added. After reacting for one hour, the alkaline phosphatase activity of the PLAP was measured by detecting the chemical luminescence by a micro plate reader (Perkin-Elmer Co.).
The PLAP activity under usual oxygen was set as 0%, the PLAP activity of cell which was treated under low oxygen was set as 100%, and the concentration suppressing the PLAP activity by 50% was set as the IC50 value of PLAP.
As usually defined, the IC50 is the concentration needed to halve the response being measured. In the case of `CCC(O)C(C)C1OC1CC(C)/C=C/C=C(\C)C1OC(=O)CC(O)CCC(C)(O)C(OC(=O)N2CCCN(C)CC2)/C=C/C1C` (centres unmarked) [B62, (8E,12E,14E)-3,6,21-Trihydroxy-6,10,12,16,20-pentamethyl-7-((4-methylhomopiperazin-1-yl)carbonyl)oxy-18,19-epoxytricosa-8,12,14-trien-11-olide], the half-maximal inhibitory concentration (IC50) fell in the range of 0.5 to 100 nM.
With `CCC(O)C(C)C1OC1CC(C)/C=C/C=C(\C)C1OC(=O)CC(O)CCC(C)(O)C(OC(=O)N2CCN(C)CC2)/C=C/C1C` (centres unmarked) [B50, (8E,12E,14E)-3,6,21-Trihydroxy-6,10,12,16,20-pentamethyl-7-((4-methylpiperazin-1-yl)carbonyl)oxy-18,19-epoxytricosa-8,12,14-trien-11-olide] the figure was 0.5 to 100 nM.
In the case of `CCC(O)C(C)C1OC1CC(C)/C=C/C=C(\C)C1OC(=O)CC(O)CCC(C)(O)C(OC(=O)NCCN2CCCC2)/C=C/C1C` (centres unmarked) [B64, (8E,12E,14E)-3,6,21-Trihydroxy-6,10,12,16,20-pentamethyl-7-N-(2-(pyrrolidin-1-yl)ethyl)carbamoyloxy-18,19-epoxytricosa-8,12,14-trien-11-olide], the 50% inhibitory concentration (IC50) lay within 0.5 to 100 nM.
`CCC(O)C(C)C1OC1CC(C)/C=C/C=C(\C)C1OC(=O)CC(O)CCC(C)(O)C(OC(=O)N2CC(C)NCC2C)/C=C/C1C` (centres unmarked) [B67, (8E,12E,14E)-3,6,21-Trihydroxy-6,10,12,16,20-pentamethyl-7-((2,5-dimethylpiperazin-1-yl)carbonyl)oxy-18,19-epoxytricosa-8,12,14-trien-11-olide]: the concentration for half-maximal inhibition (IC50) was 0.5 to 100 nM.
The same measure for `CCC(O)C(C)C(O)C(Cl)CC(C)/C=C/C=C(\C)C1OC(=O)CC(O)CCC(C)(O)C(OC(C)=O)/C=C/C1C` (centres unmarked) [B1-2, (8E,12E,14E)-7-acetoxy-18-chloro-3,6,19,21-tetrahydroxy-6,10,12,16,20-pentamethyltricosa-8,12,14-trien-11-olide]: 0.5 to 100 nM.
The same measure for `CCC(O)C(C)C1OC1CC(C)/C=C/C=C(\C)C1OC(=O)CC(O)CCC(C)(O)C(OC(=O)NCCOC)/C=C/C1C` (centres unmarked) [B53, (8E,12E,14E)-3,6,21-Trihydroxy-7-(N-(2-methoxyethyl))carbamoyloxy-6,10,12,16,20-pentamethyl-18,19-epoxytricosa-8,12,14-trien-11-olide]: 0.5 to 100 nM; for `CCC(O)C(C)C1OC1C(O)C(C)/C=C/C=C(\C)C1OC(=O)CC(O)CCC(C)(O)C(OC(C)=O)/C=C/C1C` (centres unmarked) [11107P]: 1 to 100 nM; for `CCC(O)C(C)C1OC1CC(C)/C=C/C=C(\C)C1OC(=O)CC(O)CCC(C)(O)C(OC(=O)NC2CCN(C)CC2)/C=C/C1C` (centres unmarked) [B79, (8E,12E,14E)-3,6,21-Trihydroxy-6,10,12,16,20-pentamethyl-7-N-(1-methylpiperidin-4-yl)carbamoyloxy-18,19-epoxytricosa-8,12,14-trien-11-olide]: 0.5 to 100 nM.
The same measure for `CCC(O)C(C)C1OC1CC(C)/C=C/C=C(\C)C1OC(=O)CC(O)CCC(C)(O)C(OC(N)=O)/C=C/C1C` (centres unmarked) [B44, (8E,12E,14E)-7-Carbamoyloxy-3,6,21-trihydroxy-6,10,12,16,20-pentamethyl-18,19-epoxytricosa-8,12,14-trien-11-olide]: 0.5 to 100 nM; for `CCC(O)C(C)C1OC1CC(C)/C=C/C=C(\C)C1OC(=O)CC(O)CCC(C)(O)C(OC(=O)CCl)/C=C/C1C` (centres unmarked) [B39, (8E,12E,14E)-7-Chloroacetoxy-3,6,21-trihydroxy-6,10,12,16,20-pentamethyl-18,19-epoxytricosa-8,12,14-trien-11-olide]: 0.5 to 100 nM.
As to `CCC(O)C(C)C1OC1CC(C)/C=C/C=C(\C)C1OC(=O)CC(O)CCC(C)(O)C(OC(=O)N(C)C2CCN(C)CC2)/C=C/C1C` (centres unmarked) [B80, (8E,12E,14E)-3,6,21-Trihydroxy-6,10,12,16,20-pentamethyl-7-N-methyl-N-(1-methylpiperidin-4-yl)carbamoyloxy-18,19-epoxytricosa-8,12,14-trien-11-olide], the 50% inhibitory concentration (IC50) was in the range of 0.5 to 100 nM.
With `CCC(O)C(C)C(O)C(I)CC(C)/C=C/C=C(\C)C1OC(=O)CC(O)CCC(C)(O)C(OC(C)=O)/C=C/C1C` (centres unmarked) [B3-2, (8E,12E,14E)-7-acetoxy-3,6,19,21-tetrahydroxy-18-iodo-6,10,12,16,20-pentamethyltricosa-8,12,14-trien-11-olide] the figure was 0.5 to 100 nM; with `CCC(O)C(C)C1OC1CC(C)/C=C/C=C(\C)C1OC(=O)CC(O)CCC(C)(O)C(OC(=O)NC(=O)CCl)/C=C/C1C` (centres unmarked) [B69, (8E,12E,14E)-7-(N-Chloroacetyl)carbamoyloxy-3,6,21-trihydroxy-6,10,12,16,20-pentamethyl-18,19-epoxytricosa-8,12,14-trien-11-olide], 0.5 to 100 nM.
Turning to `CCC(O)C(C)C1OC1CC(C)/C=C/C=C(\C)C1OC(=O)CC(O)CCC(C)(O)C(OC(=O)NCCN2CCOCC2)/C=C/C1C` (centres unmarked) [B59, (8E,12E,14E)-3,6,21-Trihydroxy-6,10,12,16,20-pentamethyl-7-N-(2-(morpholin-4-yl)ethyl)carbamoyloxy-18,19-epoxytricosa-8,12,14-trien-11-olide], the IC50 was in the range of 0.5 to 100 nM.
Regarding `CCC(O)C(C)C(Br)C(O)CC(C)/C=C/C=C(\C)C1OC(=O)CC(O)CCC(C)(O)C(OC(C)=O)/C=C/C1C` (centres unmarked) [B2-2, (8E,12E,14E)-7-acetoxy-19-bromo-3,6,18,21-tetrahydroxy-6,10,12,16,20-pentamethyltricosa-8,12,14-trien-11-olide], the half-inhibitory concentration (IC50) was 0.5 to 100 nM.
Consider `CCC(O)C(C)C1OC1CC(C)/C=C/C=C(\C)C1OC(=O)CC(OC(=O)N2CCC(N3CCCCC3)CC2)CCC(C)(O)C(OC(C)=O)/C=C/C1C` (centres unmarked) [B37-1], for which the IC50 lay in the range of 0.5 to 100 nM.
For `CCC(O)C(C)C1OC1CC(C)/C=C/C=C(\C)C1OC(=O)CC(O)CCC(C)(O)C(OC(=O)NCc2ccncc2)/C=C/C1C` (centres unmarked) [B58, (8E,12E,14E)-3,6,21-Trihydroxy-6,10,12,16,20-pentamethyl-7-N-(4-pyridylmethyl)carbamoyloxy-18,19-epoxytricosa-8,12,14-trien-11-olide], the IC50 was in the range of 0.5 to 100 nM.
With `CCC(O)C(C)C1OC1CC(C)/C=C/C=C(\C)C1OC(=O)CC(OC(=O)c2ccccc2)CCC(C)(O)C(OC(C)=O)/C=C/C1C` (centres unmarked) [B30-2, (8E,12E,14E)-7-acetoxy-3-benzoloxy-6,21-dihydroxy-6,10,12,16,20-pentamethyl-18,19-epoxytricosa-8,12,14-trien-11-olide] the figure was 0.5 to 100 nM.
Turning to `CCC(O)C(C)C(OC(C)=O)C(Cl)CC(C)/C=C/C=C(\C)C1OC(=O)CC(OC(C)=O)CCC(C)(O)C(OC(C)=O)/C=C/C1C` (centres unmarked) [B21-3, (8E,12E,14E)-3,7,19-triacetoxy-18-chloro-6,21-dihydroxy-6,10,12,16,20-pentamethyltricosa-8,12,14-trien-11-olide], the half-maximal inhibitory concentration (IC50) fell in the range of 0.5 to 100 nM.
With `CCC(OS(=O)(=O)c1ccc(C)cc1)C(C)C1OC1CC(C)/C=C/C=C(\C)C1OC(=O)CC(O)CCC(C)(O)C(OC(C)=O)/C=C/C1C` (centres unmarked) [B17, (8E,12E,14E)-7-Acetoxy-3,6-dihydroxy-21-(toluene-4-sulfonyloxy)-6,10,12,16,20-pentamethyl-18,19-epoxytricosa-8,12,14-trien-11-olide] the figure was 0.5 to 100 nM.
`CCC(OC(=O)c1ccccc1)C(C)C1OC1CC(C)/C=C/C=C(\C)C1OC(=O)CC(O)CCC(C)(O)C(OC(C)=O)/C=C/C1C` (centres unmarked) [B30-3, (8E,12E,14E)-7-acetoxy-21-benzoloxy-3,6-dihydroxy-6,10,12,16,20-pentamethyl-18,19-epoxytricosa-8,12,14-trien-11-olide]: the IC50 lay within 0.5 to 100 nM.
The same measure for `CCC(OC(N)=O)C(C)C1OC1CC(C)/C=C/C=C(\C)C1OC(=O)CC(O)CCC(C)(O)C(OC(C)=O)/C=C/C1C` (centres unmarked) [B35-2, (8E,12E,14E)-7-acetoxy-21-carbamoyloxy-3,6-dihydroxy-6,10,12,16,20-pentamethyl-18,19-epoxytricosa-8,12,14-trien-11-olide]: 0.5 to 100 nM; for `CCC(O)C(C)C1OC1CC(C)/C=C/C=C(\C)C1OC(=O)CC(O)CCC(C)(O)C(OC(=O)NCCCN(C)C)/C=C/C1C` (centres unmarked) [B55, (8E,12E,14E)-7-(N-(3-Dimethylamino)propyl)carbamoyloxy-3,6,21-trihydroxy-6,10,12,16,20-pentamethyl-18,19-epoxytricosa-8,12,14-trien-11-olide]: 0.5 to 100 nM.
